The subject of test [1] is A431cells (human epidermoid carcinoma). The experiment in a line: In vitro tumor cell proliferation assay (Cell Titer-Glo luminescent cell viability), A431 cells. It is filed as cell-based. The settings on record: A-431, 72 h, 72 hours drug exposure, 10% Fetal Bovine Serum, ATP luminescence readout, read-out: IC50 (50% inhibition of cell proliferation). Summed up:
(§1)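 ATP luminescence (CellTiter-Glo) measured proliferation after 72 h compound exposure at 37 °C, giving IC50 values. Serial dilutions spanning 64 pM–100 μM in 0.1% DMSO were applied one day after plating 2.5×10^3 cells/well in RPMI plus 10% fetal bovine serum.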
In general terms: In ATP-based viability assays light output follows the ATP content of the culture.

Test [2] deals with BT474 (human breast carcinoma). In words: In vitro tumor cell proliferation assay (Cell Titer-Glo luminescent cell viability), BT474 cells. It is filed as cell-based. The settings on record: BT-474, 72 hours drug exposure, 10% Fetal Bovine Serum, ATP luminescence readout, read-out: IC50 (50% inhibition of cell proliferation). Summed up:
as §1

This is an account of results in patent US7238701B2, “Substituted tetrahydrobenzothienopyrimidinamine compounds useful for treating hyper-proliferative disorders” (Bayer Pharmaceuticals Corporation, priority 2003, dated 2007).

As to `OC1CCN(CCC2CCc3c(sc4ncnc(Nc5ccc6c(cnn6Cc6ccccc6)c5)c34)C2)C1` (stereo not drawn) [Example 237, 1-(2-{4-[(1-benzyl-1H-indazol-5-yl)amino]-5,6,7,8-tetrahydro[1]benzothieno[2,3-d]pyrimidin-7-yl}ethyl)pyrrolidin-3-ol], the IC50 in test [1] is less than 50 µM; in test [2] it was less than 5 µM.

For `COCCNC(=O)CC1CCc2c(sc3ncnc(Nc4ccc(F)c(Cl)c4)c23)C1` (stereo not drawn) [Example 62, 2-{4-[(3-chloro-4-fluorophenyl)amino]-5,6,7,8-tetrahydro[1]benzothieno[2,3-d]pyrimidin-7-yl}-N-(2-methoxyethyl)acetamide], the IC50 in test [1] and in test [2] was less than 5 µM each time.

For `CCOC(=O)CC1CCc2c(sc3ncnc(Nc4ccc(OCc5ccccn5)c(Cl)c4)c23)C1` (stereo not drawn) [Example 173, {4-[3-Chloro-4-(pyridin-2-ylmethoxy)-phenylamino]-5,6,7,8-tetrahydro-benzo[4,5]thieno[2,3-d]pyrimidin-7-yl}-acetic acid ethyl ester], the IC50 in test [1] was less than 50 µM; in test [2], less than 5 µM.

Turning to `CCOC(=O)C1CCc2c(sc3ncnc(Nc4cccc(O)c4)c23)C1` (stereo not drawn) [Example 40, Ethyl 4-[(3-hydroxyphenyl)amino]-5,6,7,8-tetrahydro[1]benzothieno[2,3-d]pyrimidine-7-carboxylate], the IC50 in test [1] and in test [2] was less than 50 µM throughout.

For `Fc1cccc(COc2ccc(Nc3ncnc4sc5c(c34)CCC(CCN3CCSCC3)C5)cc2Cl)c1` (stereo not drawn) [Example 199, N-{3-chloro-4-[(3-fluorobenzyl)oxy]phenyl}-7-(2-thiomorpholin-4-ylethyl)-5,6,7,8-tetrahydro[1]benzothieno[2,3-d]pyrimidin-4-amine], the IC50 in test [1] is less than 50 µM; in test [2], less than 5 µM.

Regarding `CS(=O)(=O)CCNC(=O)CC1CCc2c(sc3ncnc(Nc4ccc(OCc5ccc(F)cc5)c(Cl)c4)c23)C1` (stereo not drawn) [Example 147, 2-[4-({3-chloro-4-[(4-fluorobenzyl)oxy]phenyl}amino)-5,6,7,8-tetrahydro[1]benzothieno[2,3-d]pyrimidin-7-yl]-N-[2-(methylsulfonyl)ethyl]acetamide], the IC50 in test [1] and in test [2] was less than 50 µM in each case.

Take `CN(C)[C@@H]1CCN(CCC2CCc3c(sc4ncnc(Nc5ccc(OCc6cccc(F)c6)c(Cl)c5)c34)C2)C1` (stereo partly drawn) [Example 160]: the IC50 in test [1] and in test [2] was less than 5 µM in each case.

On to `CS(=O)(=O)CCNCC1CCc2c(sc3ncnc(Nc4ccc(F)c(Cl)c4)c23)C1` (stereo not drawn) [Example 55, N-(3-chloro-4-fluorophenyl)-7-({[2-(methylsulfonyl)ethyl]amino}methyl)-5,6,7,8-tetrahydro[1]benzothieno[2,3-d]pyrimidin-4-amine], for which the figures for the IC50 in test [1] and in test [2] were less than 5 µM and less than 50 µM, respectively.

On to `Brc1cccc(Nc2ncnc3sc4c(c23)CCC(CCN2CCOCC2)C4)c1` (stereo not drawn) [Example 45, N-(3-bromophenyl)-7-[2-(4-morpholinyl)ethyl]-5,6,7,8-tetrahydro[1]benzothieno[2,3-d]pyrimidin-4-amine], for which the IC50 in test [1] and in test [2] was less than 5 µM throughout.

As to `O=C(O)CC1CCc2c(sc3ncnc(Nc4cccc(Br)c4)c23)C1` (stereo not drawn) [Example 65, {4-[(3-bromophenyl)amino]-5,6,7,8tetrahydro[1]benzothieno[2,3-d]pyrimidin-7-yl}acetic acid], the IC50 in test [1] and in test [2] was less than 50 µM in each case.

On to `CN(C)CCNCCC1CCc2c(sc3ncnc(Nc4ccc(F)c(Cl)c4)c23)C1` (stereo not drawn) [Example 98, N^1-(2-{4-[(3-chloro-4-fluorophenyl)amino]-5,6,7,8-tetrahydro[1]benzothieno[2,3-d]pyrimidin-7-yl}ethyl)-N^2,N^2-dimethyl-1,2-ethanediamine], for which the IC50 in test [1] and in test [2] was less than 5 µM each time.

On to `COCCN(C)C(=O)CC1CCc2c(sc3ncnc(Nc4cccc(Br)c4)c23)C1` (stereo not drawn) [Example 83, 2-{4-[(3-bromophenyl)amino]-5,6,7,8-tetrahydro[1]benzothieno[2,3-d]pyrimidin-7-yl}-N-(2-methoxyethyl)-N-methylacetamide], for which the IC50 in test [1] was less than 5 µM; in test [2], less than 50 µM.

Regarding `Cc1ccc(Oc2ccc(Nc3ncnc4sc5c(c34)CCC(CCN3CCC(N(C)C)C3)C5)cc2C)cn1` (stereo not drawn) [Example 223, 7-{2-[3-(dimethylamino)pyrrolidin-1-yl]ethyl}-N-{3-methyl-4-[(6-methylpyridin-3-yl)oxy]phenyl}-5,6,7,8-tetrahydro[1]benzothieno[2,3-d]pyrimidin-4-amine], the IC50 in test [1] and in test [2] was less than 5 µM throughout.

For `O=C(O)C1CCc2c(sc3ncnc(Nc4ccc(F)c(Cl)c4)c23)C1` (stereo not drawn) [Example 20, 4-[(3-chloro-4-fluorophenyl)amino]-5,6,7,8-tetrahydro[1]benzothieno[2,3-d]pyrimidine-7-carboxylic acid], the IC50 in test [1] and in test [2] was less than 50 µM in each case.

As for `c1ccc(Cn2ncc3cc(Nc4ncnc5sc6c(c45)CCC(CCN4CCCCC4)C6)ccc32)cc1` (stereo not drawn) [Example 239, (1-Benzyl-1H-indazol-5-yl)-[7-(2-piperidine-1-yl-ethyl)-5,6,7,8-tetrahydro-benzo[4,5]thieno[2,3-d]pyrimidin-4-yl]-amine], the IC50 in test [1] is less than 50 µM; in test [2], less than 5 µM.

In the case of `COCCC1CCc2c(sc3ncnc(Nc4ccc(F)c(Cl)c4)c23)C1` (stereo not drawn) [Example 101, N-(3-chloro-4-fluorophenyl)-7-(2-methoxyethyl)-5,6,7,8-tetrahydro[1]benzothieno[2,3-d]pyrimidin-4-amine], the IC50 is less than 50 µM in test [1] and less than 5 µM in test [2].

Take `COCCN(C)C(=O)CC1CCc2c(sc3ncnc(Nc4ccc(OCc5ccc(F)cc5)c(Cl)c4)c23)C1` (stereo not drawn) [Example 151, 2-[4-({3-chloro-4-[(4-fluorobenzyl)oxy]phenyl}amino)-5,6,7,8-tetrahydro[1]benzothieno[2,3-d]pyrimidin-7-yl]-N-(2-methoxyethyl)-N-methylacetamide]: the IC50 in test [1] and in test [2] was less than 50 µM throughout.

On to `O=C(CC1CCc2c(sc3ncnc(Nc4cccc(Br)c4)c23)C1)NCCN1CCOCC1` (stereo not drawn) [Example 69], for which the IC50 in test [1] and in test [2] was less than 50 µM throughout.

In the case of `COCCN(C)CCC1CCc2c(sc3ncnc(Nc4ccc(Oc5ccc(C)nc5)c(C)c4)c23)C1` (stereo not drawn) [Example 218, 7-{2-[(2-methoxyethyl)(methyl)amino]ethyl}-N-{3-methyl-4-[(6-methylpyridin-3-yl)oxy]phenyl}-5,6,7,8-tetrahydro[1]benzothieno[2,3-d]pyrimidin-4-amine], the IC50 was less than 50 µM in test [1] and less than 5 µM in test [2].

Regarding `CN(C)CCNCCC1CCc2c(sc3ncnc(Nc4ccc(OCc5ccccn5)c(Cl)c4)c23)C1` (stereo not drawn) [Example 184, N′-[2-(4-{[3-chloro-4-(pyridin-2-ylmethoxy)phenyl]amino}-5,6,7,8-tetrahydro[1]benzothieno[2,3-d]pyrimidin-7-yl)ethyl]-N,N-dimethylethane-1,2-diamine], the IC50 in test [1] and in test [2] was less than 5 µM in each case.

As for `Fc1ccc(Nc2ncnc3sc4c(c23)CCC(CN2CCOCC2)C4)cc1Cl` (stereo not drawn) [Example 12, N-(3-chloro-4-fluorophenyl)-7-(4-morpholinylmethyl)-5,6,7,8-tetrahydro[1]benzothieno[2,3-d]pyrimidin-4-amine], the IC50 in test [1] and in test [2] was less than 50 µM each time.
